Patent publication US9637479B2, “Tartrate salt of 5-chloro-thiophene-2-carboxylic acid [(S)-2-[2-methyl-3-(2-oxo-pyrrolidin-1-yl)-benzenesulfonylamino]-3-(4-methyl-piperazin-1-yl)-3-oxo-propyl]amide” (SANOFI, priority 2013, dated 2017)
Where a name gives a salt, the structure may show the parent alone. Read-outs that look alike come from different tables or passages of the source.

Tests used:
Format in all cases: physicochemical
[1] = Physical properties: hygroscopicity, water uptake, behavior under saturated humidity; settings: for Behavior under saturated humidity 80° C.: sodium and L-lactate: after 24 hours
[2] = Test of stability in the solid state (stress degradation, one week of storage); settings: for Stress degradation conditions 80°/saturated humidity: one week of storage at 80° C. under saturated humidity; for Stress degradation conditions 80° C./dry: one week of storage at 80° C., stable = optically, chemically and physically
Procedure: The sodium, L-lactate and L-tartrate salts of the compound of formula (I) were analyzed after one week of storage, at: • 80° C. • 80° C. and under saturated humidity, […]

[3] = Test of solubility in different buffers
Procedure: The solubility of sodium, L-lactate and L-tartrate salts of the compound of formula (I) was analyzed in different buffers. The results are described in table below (solubility of the tested compound is expressed in mg/ml).

[4] = Test of stability in solution (strong oxidizing solution, H2O2 at 0.3%); proportion of main N-oxide impurity; settings: room temperature
Procedure: The sodium, L-lactate and L-tartrate salts of the compound of formula (I) were analyzed after one week of storage in a strong oxidizing solution: the three compounds were maintained in a solution of H2O2 at 0.3%, at room temperature. After either 6 hours or one week, the proportion of the main N-oxide impurity of the compound of formula (I) [drawing 4] was measured.

[5] = 0.2M pH = 9 hydregenocarbonate buffer

Row | Hygroscopicity [1] | Water uptake 80% RH 25° C. [1] [%] | Behavior under saturated humidity 80° C. [1] | Stress degradation conditions 80°/saturated humidity [2] | Stress degradation conditions 80° C./dry [2] | Solubility ([3]; 0.1M pH = 4 phosphate buffer) [µg/mL] | Solubility ([3]; 0.1M pH = 6.5 phosphate buffer) [µg/mL] | Solubility ([3]; 0.1M pH = 7.4 phosphate buffer) [µg/mL] | Solubility ([3]; 0.1N HCl) [µg/mL] | Solubility [3, 5] [µg/mL] | Solubility ([3]; Purified water) [µg/mL] | % of impurity (main N-oxide impurity) ([4]; after 1 week) [% after 1 week] | Solubility ([3]; 0.1N HCl, simulated gastric fluid, 0.1N HCl, read-out: Solubility) [µg/mL] | Solubility ([3]; hydrogenocarbonate buffer, pH 9, aqueous buffer, 0.2M pH = 9 hydregenocarbonate buffer, read-out: Solubility) [µg/mL] | Solubility ([3]; phosphate buffer, pH 4, aqueous buffer, 0.1M pH = 4 phosphate buffer, read-out: Solubility) [µg/mL] | Solubility ([3]; phosphate buffer, pH 6.5, aqueous buffer, 0.1M pH = 6.5 phosphate buffer, read-out: Solubility) [µg/mL] | Solubility ([3]; phosphate buffer, pH 7.4, aqueous buffer, 0.1M pH = 7.4 phosphate buffer, read-out: Solubility) [µg/mL] | Solubility ([3]; purified water, water, Purified water, read-out: Solubility) [µg/mL] | % of impurity (main N-oxide impurity) ([4]; after 6 hours) [% after 6 hours] | SMILES
1 | Hygroscopic | 2.5 | Gel formation-amorphous | slight degradation | stable* | >10000 | >10000 | 9800 | >10000 | 8500 | >10000 | 6.9 |  |  |  |  |  |  |  | Cc1c(N2CCCC2=O)cccc1S(=O)(=O)N[C@@H](CNC(=O)c1ccc(Cl)s1)C(=O)N1CCN(C)CC1 [L-lactate salt, 5-chloro-thiophene-2-carboxylic acid [(S)-2-[2-methyl-3-(2-oxo-pyrrolidin-1-yl)-benzenesulfonylamino]-3-(4-methyl-piperazin-1-yl)-3-oxo-propyl]amide]
2 | Slightly | 0.9 | Stable 7 days | stable | stable* | >10000 | >10000 | >10000 | >10000 | 8300 | >10000 | 0.77 |  |  |  |  |  |  |  | Cc1c(N2CCCC2=O)cccc1S(=O)(=O)N[C@@H](CNC(=O)c1ccc(Cl)s1)C(=O)N1CCN(C)CC1 [L-tartrate salt, 5-chloro-thiophene-2-carboxylic acid [(S)-2-[2-methyl-3-(2-oxo-pyrrolidin-1-yl)-benzenesulfonylamino]-3-(4-methyl-piperazin-1-yl)-3-oxo-propyl]amide]
3 | Highly | 31.5 | Deliquescence | huge degradation | stable* |  |  |  |  |  |  |  | > 10000 | > 10000 | 8900 | 6500 | 6900 | > 10000 | 25.4 | Cc1c(N2CCCC2=O)cccc1S(=O)(=O)N[C@@H](CNC(=O)c1ccc(Cl)s1)C(=O)N1CCN(C)CC1 [Sodium salt, 5-chloro-thiophene-2-carboxylic acid [(S)-2-[2-methyl-3-(2-oxo-pyrrolidin-1-yl)-benzenesulfonylamino]-3-(4-methyl-piperazin-1-yl)-3-oxo-propyl]amide]
